In patent US9480278B2, “Diet for altering the nutrient composition of feeder insects” (Mark Finke LLC, priority 2012, dated 2016):
Like-named read-outs stand apart in the source and are kept apart here. Values belong to the compound of their own block, whether it stands above or below them.

Columns and labels:
in vivo = settings: cricket
feeder insects [1] = tested on: feeder insects
[2] = Lutein and zeaxanthin in diet versus lutein and zeaxanthin in feeder insect; settings: cricket, whole feeder insect (dry matter), oral
Protocol: (§1) An experiment was performed to determine the levels of lutein and zeaxanthin in a feeder insect diet that would produce lutein and zeaxanthin levels in a feeder insect similar to those found in the wild.

feeder insects [3] = experiment: as above; settings: 64.9 mg/kg lutein in diet
Protocol: as §1

mealworms = experiment: Vitamin E content of mealworms fed a diet containing added vitamin E; assay type: in vivo
Protocol: (§2) There is a direct relationship between the vitamin E content in the diet and the vitamin E content in the feeder insect. Since the feeder insects were fasted prior to analysis, and the results were collected when the feeder insects were grown to approximately two-thirds of adult-size within approximately 21 days after introduction of the diet, the vitamin E content in the feeder insect is a result of a change in the composition of the tissues of the feeder insect, rather than the consequence of food in the gut of the feeder insect. Regression analysis was performed on the data to establish a best-fit line defined by an equation FI=0.241*D+33.5, where FI is the vitamin E content of feeder insect and D is the vitamin E content in the feeder insect diet. According to the present inventive method, with this established equation, a diet, fed to the feeder insect, having a vitamin E content of between approximately 69 and approximately 691 IU per kilogram produces the targeted 50 to 200 IU of vitamin E per kilogram dry matter in the feeder insect, respectively.

feeder insects [4] = experiment: Vitamin E level in feeder insects fed diets with varying levels of vitamin E; assay type: in vivo, crickets; settings: approximately 21 days, fasted 24 to 36 hours
Protocol: Captive insectivores fed with current methods have been shown in past studies to be deficient in vitamin E. Feeder insects which contain between approximately 50 and approximately 200 International Units (“IU”) of vitamin E per kilogram dry matter provide health benefits to captive insectivores. All references in this disclosure to concentrations in feeder insects will be based on dry matter measurements, unless otherwise specified. Experiments were performed to determine the levels of vitamin E in a feeder insect diet that would produce in the feeder insect the targeted levels between 50 and 200 IU of vitamin E per kilogram dry matter for consumption by an insectivore. In the experiments, feeder insects were fasted for 24 to 36 hours prior to analysis to ensure that food in the gut was eliminated completely so as not to affect the results. The feeder insects were provided the diet containing varying levels of vitamin E. Vitamin E analysis was then performed using the method as described by Cort, et. al., Vitamin E Content of Feedstuffs Determined by High-Performance Liquid Chromatography Fluorescence, JOURNAL OF AGRICULTURAL AND FOOD CHEMISTRY, Vol. 31, 1330-1333 (1983).
as §2, with “According to the present inventive method, with this established equation, a diet, fed to the feeder insect, having a vitamin E content of between approximately 69 and approximately 691 IU per kilogram produces the targeted 50 to 200 IU of vitamin E per kilogram dry matter in the feeder insect, respectively.” left out

[5] = 3 milligrams of beta-carotene per kilogram of feeder insect diet
[6] = 65 milligrams of beta-carotene per kilogram of feeder insect diet

concentration at 21 days (in vivo; 0.2 mg/kg diet, Beta-carotene in Feeder Insect, 0.2 mg/kg beta-carotene in diet): 33.3 ng/g
concentration at 21 days (in vivo; 0.3 mg/kg diet, Beta-carotene in Feeder Insect, 0.3 mg/kg beta-carotene in diet): 33.3 ng/g
concentration at 21 days (in vivo; 3 mg beta-carotene per kg diet, beta-carotene in feeder insect by regression FI=219.2×D-2.92, 3 milligrams of beta-carotene per kilogram of feeder insect diet): 655 ng/g
concentration at 21 days (in vivo; 11.7 mg/kg diet, Beta-carotene in Feeder Insect, 11.7 mg/kg beta-carotene in diet): 2720 ng/g
concentration at 21 days (in vivo; 15.3 mg/kg diet, Beta-carotene in Feeder Insect, 15.3 mg/kg beta-carotene in diet): 3230 ng/g
concentration at 21 days (in vivo; 65 mg beta-carotene per kg diet, beta-carotene in feeder insect by regression FI=219.2×D-2.92, 65 milligrams of beta-carotene per kilogram of feeder insect diet): 14300 ng/g
concentration at 21 days (in vivo; beta-carotene in feeder insect by regression from Table C, diet with approximately 0.3 to approximately 1,496.4 milligrams of beta-carotene per kilogram): 62.8 to 328000 ng/g
concentration at 21 days (in vivo; beta-carotene in feeder insect by regression from Table C, diet with approximately 68.4 to approximately 365 milligrams of beta-carotene per kilogram): 15000 to 80000 ng/g
Compound: CC1=C(/C=C/C(C)=C/C=C/C(C)=C/C=C/C=C(C)/C=C/C=C(C)/C=C/C2=C(C)CCCC2(C)C)C(C)(C)CCC1 [Beta-carotene, beta-carotene]
share of poultry's vitamin A requirement, by regression (feeder insects [1]; [5]): approximately 78%
share of the rat's vitamin A requirement, by regression (feeder insects [1]; [5]): approximately 51%
vitamin A yielded in feeder insect, by regression (feeder insects [1]; [5]): 1,173 IU of vitamin A per kilogram dry matter
share of poultry's vitamin A requirement, by regression (feeder insects [1]; [6]): approximately 1600%
share of the rat's vitamin A requirement, by regression (feeder insects [1]; [6]): approximately 1000%
vitamin A yielded in feeder insect, by regression (feeder insects [1]; [6]): 23,000 IU of vitamin A per kilogram dry matter

concentration at 21 days ([2]; 11.6 mg/kg diet): 33 ng/g
concentration at 21 days ([2]; 13.3 mg/kg diet): 333 ng/g
concentration at 21 days ([2]; 193.6 mg/kg diet): 11300 ng/g
Lutein in Feeder Insect (feeder insects [3]): 800 µg/kg dry matter
Compound: CC1=C[C@H](O)CC(C)(C)[C@H]1/C=C/C(C)=C/C=C/C(C)=C/C=C/C=C(C)/C=C/C=C(C)/C=C/C1=C(C)C[C@@H](O)CC1(C)C [Lutein, lutein]

vitamin E content compared with mealworms fed a control diet (mealworms): more vitamin E
Vitamin E in Feeder Insect (feeder insects [4]; 31 IU/kg vitamin E in diet): 38.7 IU/kg dry matter
Vitamin E in Feeder Insect (feeder insects [4]; 210 IU/kg vitamin E in diet): 89.2 IU/kg dry matter
Vitamin E in Feeder Insect (feeder insects [4]; 360 IU/kg vitamin E in diet): 117.7 IU/kg dry matter
Compound: vitamin E
